Measurements taken from patent US9109041B2, “Analog compounds of analgesic peptides derived from the venom of crotalus durissus terrificus snakes, their uses, compositions, methods of preparation and purification” (priority 2004, dated 2015).

What was measured:
[1] = tested on: hyperalgesia induced by chronic constriction of the sciatic nerve; experiment: hyperalgesia induced by chronic constriction of the sciatic nerve (rat paw pressure test); assay type: in vivo
Description: For the induction of neuropathic pain, surgery was performed in the sciatic nerve, in accordance with the method described by Bennett, G. J and Xie, Y. K. (Pain, 33:87-107, 1988). The animals were anesthetized with halothane. The sciatic nerve was exposed in the middle region of the thigh, moving away the femoral biceps muscle. Close to the trifurcation of the sciatic nerve, 7 mm of distance from the trifurcation, 4 loose ligations were performed (chromed catgut 4-0) around it, distant from each other in approximately 1 mm. The bindings were performed along the nerve, up to 4-5 mm from the initial point. The incision was sutured in layers, using silk suture thread number 4-0.
The test was applied before (BM-basal measurement) and on the 14th day after the surgery, to characterize the development of neuropathic pain.
The results were analyzed by comparing the means of the basal and initial measurements or by comparing the means of the initial and final measurements or, when determined, through the comparison of the means obtained in the different experimental groups.
(§1) For this purpose, the animals were treated with CTOP, a specific μ receptor antagonist (20 μg/paw), nor-BNI, a specific κ receptor antagonist (50 μg/paw) or with ICI 174,864, a specific δ receptor antagonist (10 μg/paw). The antagonists were injected, by intraplantar route. The peptide was administered in the dose of 5 μg/kg, orally, immediately before the injection of the opioid antagonists.
The results were analyzed comparing the mean values of the basal and initial measurements, or of the initial and final measurements or, when determined, by comparing the mean values obtained in the different experimental groups (Tables 15 and 16).

[2] = tested on: hyperalgesia induced by the Walker 256 tumor; experiment: hyperalgesia induced by the Walker 256 tumor (cancer pain); assay type: in vivo, rat
Description: (§2) The Walker 256 tumor cells were kindly provided by Prof. Dr. Rui Curi, of the Physiology and Biophysics Department of the Biomedical Science Institute of the University of São Paulo. The tumor-bearing animal was sacrificed and the tumoral tissue was removed, placed on a Petri dish containing 0.9% saline. Then, the tumor was cut in smaller parts, and transferred into a beaker containing saline. The material was triturated with a fine-cut, until the tumor is totally fragmented. Then, this material was filtered in gauze and the liquid collected in a beaker. All procedures were performed on ice. The material of the beaker was transferred to 50 ml plastic tubes and centrifuged at 4° C., for 10 minutes, at 1200 rpm. After centrifugation, the supernatant was rejected and the precipitate resuspended in saline 0.9%. For cell counts, the suspension of cells was diluted (1:100) in saline. An aliquot (200 μl) was removed and placed in a test tube containing 200 μl of 1% Trypan blue. The cell number was determined in optical microscope using Neubauer's chamber. The cellular viability was determined considering viable the light-refracting cells.
(§3) After determining the number of cells, 1 ml of the suspension, containing 1×10^7 cells, was injected by intraperitoneal route, on the right side of the rats to obtain liquid tumor (ascites).
(§4) Five days after injection, the rats with ascites were sacrificed and the ascetic fluid collected from the peritoneal cavity and placed in a test tube containing EDTA. The liquid was diluted 100 times with phosphate-buffered saline (PBS), pH 7.4. The cell count was done after dilution with Trypan blue, as described above. Tumor cell count was ascertained to 1×10^6 cells in 100 μl, by dilution with PBS. This number of cells was determined in preliminary tests for induction of cancer pain in rats. In this final cell number adjustment, the volume of antibiotic (Benzetacil®) added to the suspension (150,000 units of antibiotic/10 ml of suspension), was taken into consideration. The antibiotic was used in order to avoid microbial contamination. The cells were injected by intraplantar route into one of the rat hind paws. Control animals were injected with PBS into the contralateral paw, in the same experimental conditions.
(§5) Hyperalgesia, allodynia and spontaneous pain were determined before (BM-basal measurement) and 5 days after tumor cell injection, before (IM-initial measurement) and 2 hours after (FM-Final measurement) peptide administration.
(§6) The results were analyzed comparing the mean values of the basal and initial measurements, or of the initial and final measurements or, when determined, by comparing the mean values obtained in the different experimental groups (Tables 17, 18, 19).
as §1, with “were injected” for “were injected,”, “of 6” for “of 5”, “antagonists. The results were analyzed comparing the mean values of the basal and initial measurements, or of the initial and final measurements or, when determined, by comparing the mean values obtained in the different experimental groups ( Table 20).” for “antagonists.”

[3] = tested on: allodynia induced by the Walker 256 tumor; experiment: allodynia induced by the Walker 256 tumor (cancer pain); assay type: in vivo, rat
Description: as §2, §3, §4, §5, §6
as §1, with “were injected” for “were injected,”, “of 6” for “of 5”, “antagonists. The results were analyzed comparing the mean values of the basal and initial measurements, or of the initial and final measurements or, when determined, by comparing the mean values obtained in the different experimental groups ( Table 20).” for “antagonists.”

[4] = oral route, results 1 hour after treatment, reversal of hyperalgesia, CurveExpert 1.3
[5] = 6 μg/kg p.o. + CTOP 20 μg/paw i.pl., 5th day, 2 hours after peptide
[6] = 6 μg/kg p.o. + CTOP 20 μg/paw i.pl., 5th day, before peptide
[7] = 6 μg/kg p.o. + CTOP 20 μg/paw i.pl., before injection of the tumor
[8] = 6 μg/kg p.o. + ICI 174,864 10 μg/paw i.pl., 5th day, 2 hours after peptide
[9] = 6 μg/kg p.o. + ICI 174,864 10 μg/paw i.pl., 5th day, before peptide
[10] = 6 μg/kg p.o. + ICI 174,864 10 μg/paw i.pl., before injection of the tumor
[11] = 6 μg/kg p.o. + nor-BNI 50 μg/paw i.pl., 5th day, 2 hours after peptide
[12] = 6 μg/kg p.o. + nor-BNI 50 μg/paw i.pl., 5th day, before peptide
[13] = 6 μg/kg p.o. + nor-BNI 50 μg/paw i.pl., before injection of the tumor
[14] = peptide 6 μg/kg p.o., CTOP 20 μg/paw i.pl.
[15] = peptide 6 μg/kg p.o., ICI 174,864 10 μg/paw i.pl.
[16] = peptide 6 μg/kg p.o., nor-BNI 50 μg/paw i.pl.

## Xaa-Phe-Ser-Pro-Glu-Asn-Cys-Gln-Gly-Glu-Ser-Gln-Pro-Cys [SEQ ID NO: 2]
[1]; 5 μg/kg p.o., before surgery (Table 15)
  pain threshold, BM: 72 ± 1.44 g
[1]; 5 μg/kg p.o., day 14, 1 h after peptide (Table 11)
  pain threshold, FM 1 h: 100 ± 4.42 g
[1]; 5 μg/kg p.o., day 14, 1 h after peptide (Table 15)
  pain threshold, FM 1 h: 114 ± 6.57 g
[1]; 5 μg/kg p.o., day 14, 3 h after peptide (Table 11)
  pain threshold, FM 3 h: 98 ± 4.28 g
[1]; 5 μg/kg p.o., day 14, 3 h after peptide (Table 15)
  pain threshold, MF 3 h: 121 ± 5.91 g
[1]; 5 μg/kg p.o., day 14, 24 h after peptide
  pain threshold, FM 24 h: 99 ± 3.51 g
[1]; 5 μg/kg p.o., day 14, 48 h after peptide
  pain threshold, FM 48 h: 93 ± 3.00 g
[1]; 5 μg/kg p.o., day 14, 72 h after peptide
  pain threshold, FM 72 h: 86 ± 2.45 g
[1]; 5 μg/kg p.o., day 14, 96 h after peptide
  pain threshold, FM 96 h: 33 ± 1.18 g
[1]; 5 μg/kg p.o., day 14, before peptide (Table 15)
  pain threshold, IM: 35 ± 2.04 g
[1]; 5 μg/kg p.o., day 14 after surgery, before peptide (Table 11)
  pain threshold, IM: 32 ± 0.79 g
[1]; one single administration p.o.
  duration of the anti-hyperalgesic effect: up to 3 days
[1]; [4]
  50% effective dose: 0.2055 µg/kg
  60% effective dose: 0.2832 µg/kg
  90% effective dose: 0.5747 µg/kg
[1]; peptide 5 μg/kg p.o., CTOP 20 μg/paw i.pl.
  effect of the mu opioid receptor antagonist on the anti-hyperalgesic effect of the peptide: did not alter
[1]; peptide 5 μg/kg p.o., ICI 174,864 10 μg/paw i.pl.
  effect of the delta opioid receptor antagonist on the anti-hyperalgesic effect of the peptide: blocked
[1]; peptide 5 μg/kg p.o., nor-BNI 50 μg/paw i.pl.
  effect of the kappa opioid receptor antagonist on the anti-hyperalgesic effect of the peptide: partially inhibited
[2]; [5]
  pain threshold, FM: 72 ± 2.81 g
[2]; [6]
  pain threshold, IM: 37 ± 2.81 g
[2]; [7]
  pain threshold, BM: 70 ± 1.29 g
[2]; [8]
  pain threshold, FM: 52 ± 1.22 g
[2]; [9]
  pain threshold, IM: 33 ± 3.39 g
[2]; [10]
  pain threshold, BM: 67 ± 1.22 g
[2]; [11]
  pain threshold, FM: 32 ± 1.05 g
[2]; [12]
  pain threshold, IM: 32 ± 2.14 g
[2]; [13]
  pain threshold, BM: 69 ± 1.53 g
[2]; 6 μg/kg p.o., 5th day after tumor implantation, 2 hours after peptide (Table 17)
  pain threshold, FM: 76 ± 2.29 g
[2]; 6 μg/kg p.o., 5th day after tumor implantation, before peptide (Table 17)
  pain threshold, IM: 27 ± 1.01 g
[2]; 6 μg/kg p.o., 5th day, 2 hours after peptide (Table 20)
  pain threshold, FM: 75 ± 2.88 g
[2]; 6 μg/kg p.o., 5th day, before peptide (Table 20)
  pain threshold, IM: 36 ± 2.39 g
[2]; 6 μg/kg p.o., before injection of the tumor (Table 17)
  pain threshold, BM: 69 ± 1.30 g
[2]; 6 μg/kg p.o., before injection of the tumor (Table 20)
  pain threshold, BM: 71 ± 1.25 g
[2]; [14]
  effect of the mu opioid receptor antagonist on the anti-hyperalgesic effect of the peptide: did not alter
[2]; [15]
  effect of the delta opioid receptor antagonist on the anti-hyperalgesic effect of the peptide: partially inhibited
[2]; [16]
  effect of the kappa opioid receptor antagonist on the anti-hyperalgesic effect of the peptide: blocked
[3]; [5]
  paw withdrawal threshold (allodynia), FM: 4.98 ± 0.03 log 10 (mg × 10)
[3]; [6]
  paw withdrawal threshold (allodynia), IM: 4.41 ± 0.00 log 10 (mg × 10)
[3]; [7]
  paw withdrawal threshold (allodynia), BM: 5.03 ± 0.02 log 10 (mg × 10)
[3]; [8]
  paw withdrawal threshold (allodynia), FM: 4.56 ± 0.03 log 10 (mg × 10)
[3]; [9]
  paw withdrawal threshold (allodynia), IM: 4.41 ± 0.00 log 10 (mg × 10)
[3]; [10]
  paw withdrawal threshold (allodynia), BM: 4.99 ± 0.02 log 10 (mg × 10)
[3]; [11]
  paw withdrawal threshold (allodynia), FM: 4.41 ± 0.00 log 10 (mg × 10)
[3]; [12]
  paw withdrawal threshold (allodynia), IM: 4.41 ± 0.00 log 10 (mg × 10)
[3]; [13]
  paw withdrawal threshold (allodynia), BM: 4.97 ± 0.00 log 10 (mg × 10)
[3]; 6 μg/kg p.o., 5th day after tumor implantation, 2 hours after peptide (Table 18)
  paw withdrawal threshold (allodynia), FM: 4.97 ± 0.00 log 10 (mg × 10)
[3]; 6 μg/kg p.o., 5th day after tumor implantation, before peptide (Table 18)
  paw withdrawal threshold (allodynia), IM: 4.41 ± 0.00 log 10 (mg × 10)
[3]; 6 μg/kg p.o., 5th day, 2 hours after peptide (Table 21)
  paw withdrawal threshold (allodynia), FM: 4.97 ± 0.00 log 10 (mg × 10)
[3]; 6 μg/kg p.o., 5th day, before peptide (Table 21)
  paw withdrawal threshold (allodynia), IM: 4.41 ± 0.00 log 10 (mg × 10)
[3]; 6 μg/kg p.o., before injection of the tumor (Table 18)
  paw withdrawal threshold (allodynia), BM: 4.97 ± 0.00 log 10 (mg × 10)
[3]; 6 μg/kg p.o., before injection of the tumor (Table 21)
  paw withdrawal threshold (allodynia), BM: 4.97 ± 0.00 log 10 (mg × 10)
[3]; [14]
  effect of the mu opioid receptor antagonist on the anti-allodynic effect of the peptide: did not alter
[3]; [15]
  effect of the delta opioid receptor antagonist on the anti-allodynic effect of the peptide: partially inhibited
[3]; [16]
  effect of the kappa opioid receptor antagonist on the anti-allodynic effect of the peptide: blocked
